Patent US12629355B2, “Drug inhibitor against migration and invasion of cancer cells and methods of treating against metastasis of cancer cells” (HOWARD UNIVERSITY, priority 2019, dated 2026)

Key:
Assay type in all cases: cell-based
U251 cells [1] = experiment: F-actin foci and pY397-FAK organization, immunofluorescence (FIG. 20); details: 96 h, 2 ng/ml TGF-beta1
Text: Cell cytoskeleton plays a significant role during the migration and invasion of cancer cells. Changes in the cytoskeleton accompanies the cell shape changes and which subsequently changes the dynamic actin polymerization and depolymerization process. The attachment of cells to the substrate is integrin dependent and as such it was postulated that the RACK1 dependent migration will also regulate the cytoskeleton changes. In this regard, F-actin foci helps stress fiber based directional filipodia development. To visualize F-actin, we used […] that labels the F-actins. FAK located at focal contact which is actin based anchoring junction that links the cells with the ECM and mostly used by motile cells like the metastatic cancer cells. FAK is known as the key regulator of the F-actin dynamics (Li et al., 2013). (Li S Y, et al., Focal adhesion kinase is a regulator of F-actin dynamics: New insights from studies in the testis, Spermatogenesis, 3 (3): e25385 (2013).
The presence of pY397-FAK can be seen in a linear organized way within the migratory structures but such organized presence of the pY397-FAK was not seen in the presence of the representative compound (SD29-14).
As to FIG. 20, and methods, U251 cells were grown on glass coverslip for 96 h in the presence or absence of SD29-14 containing MEM media with 2 ng/ml TGF-beta1 growth factor. […]

RACK1 protein = target: T1, RACK1 protein (Homo sapiens, UniProt P63244); experiment: RACK1 protein expression, western blot (FIG. 7); details: MCF-7 cells, 6 days, compound added on day 1 and day 4
T1 construct: endogenous in cells; host or cells: MCF-7
Protocol: As to FIG. 7, MCF-7 cells were washed three times in PBS after growth on MEM media for 6 days. The indicated compounds were added on day 1 and day 4 of the treatment. The cells were lysed in the lysis buffer (Cell Signaling, MA) supplemented with protease inhibitor cocktail (Sigma-Aldrich), Protein Tyrosine phosphatase inhibitors (Santa Cruz Biotechnology, TX), and N-Ethylamaleimide (Sigma-Aldrich) at 25 mM to inhibit de-sumoylation. Twenty five micrograms of proteins were loaded on the BIORAD company's 4-12% precast polyacrylamide gel, transferred to a PVDF membrane and then blocked with 5% non-fat milk (Biorad) for one hour, washed and incubated overnight at 4 C with the RACK1 antibody (1:2500 dilution) purchased from the Santa Cruz Biotechnology. After overnight incubation, the membrane was washed 3× in PBST and then incubated with a horseradish peroxidase-coupled mouse secondary antibody for an hour at room temperature and the bands were detected with enhanced chemiluminescence (Pierce, Rockford, IL, USA), according to standard methods. […] This served as the loading control.

N-cadherin = experiment: Protein expression of EMT marker N-cadherin, western blot (FIG. 8); details: U251 cells, serum starved 24 h, with or without TGFb, 6 days
Text: The inhibition of EMT marker by a representative compound (SD 29-14) in comparison to other compounds (SD 29, and SD 29-12). A large family of cadherin molecules are expressed in a cancer cell-type specific manner and among them, N-cadherin is reported to be expressed in mesenchymal cells (e.g., Li and Feng, 2011; Alizadeh et al., 2014). […] Up-regulation of N-cadherin reduces cancer cell adhesion ability to epithelial cells, increases adhesion to stromal cells, and leads to subsequent invasion of tumor cells into stroma (Guan 2015). N-cadherin promotes cell migration and metastasis regardless of the expression and function of E-cadherin (Hazan et al., 2000). […] The N-cadherin expression correlates with RACK1 expression (lower panel). The coomassie stained gel is used as the loading control.
As to FIG. 8, U251 cells starved (no serum) for 24 h and then treated with the indicated compounds with or without the TGFb and again replenished with the compounds and TGFb after 3 days. After allowing to grow for 6 days, the cells were washed three times in PBS. […] After overnight incubation, the membrane was washed 3× in PBST and then incubated with a horseradish peroxidase-coupled secondary antibody for an hour at room temperature and the bands were detected with enhanced chemiluminescence (Pierce, Rockford, IL, USA), according to standard methods.

U251 cells [2] = experiment: Actin stress fiber development in lamellipodia (FIG. 6); details: U251 cells grown 72 h, versus DMSO
Text: Actin stress fibers are known to regulate the mesenchymal migrating cells by regulating the myosin-based contractility to achieve directional cell migration (Vallenius 2013). […] As these stress fibers are needed for other cellular functions required for directional movement, a lack of a visible stress fibers should inhibit cells treated with a representative compound (SD 29-14) from acquiring necessary traction generation to migrate. Actin stress fiber development has been reported to be needed to generate traction forces, establishment of the front-to-back polarity axis, retraction of the trailing edge, and extracellular matrix remodeling-development that collectively regulates the directional movement of migrating cell (Vallenius 2013). The cells were grown 72 h at conditions described for the cells imaged in FIG. 4 and were photographed under a Zeiss brand compound microscope at 40× magnification.

U251 cells [3] = experiment: Transwell invasion assay (FIG. 10); details: serum free media with TGF in upper chamber, about 14 hours
Protocol: A transwell assay is conducted as a means for testing for invasion. A transwell invasion assay can be used to test the invasive potential of cells in response migration inducers or inhibitors. This assay is also known as modified Boyden chamber assay. During this assay, cells are placed on the upper layer of a cell culture insert with permeable membrane and a solution containing the test agent is placed below the cell permeable membrane. Following an incubation period (3-18 hours) at 37° C. in a humidified chamber, the cells that have stuck during the migration towards the lower chamber through the membrane are stained and counted. […] Collectively, these findings (as shown in FIG. 9 and FIG. 10) indicate that administering a representative compound (SD 29-14) played a significant functional role in the regulation of U251 glioma cell migration and invasion.
In measuring cell invasion, 12-well transwell chambers (Corning Inc., Kennebunk, ME) were used with 6.5 mm inserts and 8.0 μm membrane pore size. […] Invasive cells on the bottom surface were fixed with 4% paraformaldehyde for 15 min and stained with 0.2% crystal violet for 15 minutes and the cells were counted and photographed under a light microscope.

Nn1c(S)nnc1-c1cc(Cl)cc(Cl)c1 [SD 29-14]
number and intensity of F-actin foci (U251 cells [1]): reduced the number and intensity of the F-actin foci
RACK1 protein expression (RACK1 protein): significant of RACK1 proteins
N-cadherin expression (N-cadherin): down-regulated N-cadherin expression
actin stress fiber development in lamellipodia (U251 cells [2]): no visible stress fiber like radiating structures were visible
cells on the membrane (invasion) (U251 cells [3]): hardly any cells were observed on the membrane
